Data from patent US20240365781A1, “SYNERGISTICALLY EFFECTIVE HERBICIDE COMPOSITION COMPRISING PELARGONIC ACID AND FLAZASULFURON” (Belchim Crop Protection NV, priority 2017, published 2024).

Columns and labels:
Experiment in all cases: post-emergence field trial under rows of vines, 150-200 L water/ha (Examples 6-9)
Format in all cases: in vivo
Bromus oxyodon = details: flazasulfuron 40 g/ha
From the text: (§1) The expected activity of a given combination of two or three herbicides can be calculated as follows according to a calculation method by Colby (cf. COLBY, S. R.: “Calculating synergistic and antagonistic responses of herbicide combinations”, • Weeds 15, pages 20-22, 1967): • If X=% damage by herbicide (A) at an application rate of m g/ha, • Y=% damage by herbicide (B) at an application rate of n g/ha, • E=the expected damage by herbicides (A) and (B) at application rates of m and n […] and, • then for a combination:
(§2) Individual compositions comprising pelargonic acid or flazasulfuron are compared with a herbicide composition according to the invention comprising pelargonic acid and flazasulfuron.
(§3) Herbicidal activity was determined by performing a post-emergence test. […] The corresponding mixture was in the form of a spray solution. Besides, spray solutions of individual compositions comprising pelargonic acid or flazasulfuron were used.
(§4) The spray solution was applied on plants of unwanted vegetation present on fields where perennial crops were grown.
(§5) After 5 to 88 days after application of the spray solution, the degree of damage to the unwanted vegetation is rated in % of plants of unwanted vegetation that were killed. Tests were performed on test fields (field trials).

Veronica persicae = details: flazasulfuron 40 g/ha
From the text: as §1, §2, §3, §4, §5

Digitaria sanguinalis = details: flazasulfuron 40 g/ha
From the text: as §1, §2, §3, §4, §5

Epilobium tetragonum = details: flazasulfuron 40 g/ha
From the text: as §1, §2, §3, §4, §5

Geranium molle = details: 15 d, flazasulfuron 40 g/ha
From the text: as §1, §2, §3, §4, §5

[1] = 7 d, pelargonic acid 10880 g/ha
[2] = 14 d, pelargonic acid 5440 g/ha
[3] = 14 d, pelargonic acid 6800 g/ha
[4] = 14 d, pelargonic acid 8160 g/ha
[5] = 14 d, pelargonic acid 10880 g/ha
[6] = 27 d, pelargonic acid 5440 g/ha
[7] = 27 d, pelargonic acid 6800 g/ha
[8] = 27 d, pelargonic acid 8160 g/ha
[9] = 27 d, pelargonic acid 10880 g/ha
[10] = 56 d, pelargonic acid 5440 g/ha
[11] = 56 d, pelargonic acid 10880 g/ha
[12] = 56 d, pelargonic acid 6800 g/ha
[13] = 56 d, pelargonic acid 8160 g/ha

## COc1cc(OC)nc(NC(=O)NS(=O)(=O)c2ncccc2C(F)(F)F)n1 [Flazasulfuron, 1-(4,6-dimethoxypyrimidin-2-yl)-3-(3-trifluoromethyl-2-pyridylsulfonyl)urea]
Bromus oxyodon; 7 d, pelargonic acid 5440 g/ha
  herbicidal effect: 28%
Bromus oxyodon; 7 d, pelargonic acid 6800 g/ha
  herbicidal effect: 28%
Bromus oxyodon; 7 d, pelargonic acid 8160 g/ha
  herbicidal effect: 28%
Bromus oxyodon; [1]
  herbicidal effect: 28%
Bromus oxyodon; [2]
  herbicidal effect: 46%
Bromus oxyodon; [3]
  herbicidal effect: 46%
Bromus oxyodon; [4]
  herbicidal effect: 46%
Bromus oxyodon; [5]
  herbicidal effect: 46%
Bromus oxyodon; 28 d, pelargonic acid 5440 g/ha
  herbicidal effect: 78%
Bromus oxyodon; 28 d, pelargonic acid 6800 g/ha
  herbicidal effect: 78%
Bromus oxyodon; 28 d, pelargonic acid 8160 g/ha
  herbicidal effect: 78%
Bromus oxyodon; 28 d, pelargonic acid 10880 g/ha
  herbicidal effect: 78%
Veronica persicae; 7 d, pelargonic acid 5440 g/ha
  herbicidal effect: 43%
Veronica persicae; 7 d, pelargonic acid 6800 g/ha
  herbicidal effect: 43%
Veronica persicae; 7 d, pelargonic acid 8160 g/ha
  herbicidal effect: 43%
Veronica persicae; [1]
  herbicidal effect: 43%
Veronica persicae; [2]
  herbicidal effect: 50%
Veronica persicae; [3]
  herbicidal effect: 50%
Veronica persicae; [4]
  herbicidal effect: 50%
Veronica persicae; [5]
  herbicidal effect: 50%
Veronica persicae; [6]
  herbicidal effect: 24%
Veronica persicae; [7]
  herbicidal effect: 24%
Veronica persicae; [8]
  herbicidal effect: 24%
Veronica persicae; [9]
  herbicidal effect: 24%
Veronica persicae; [10]
  herbicidal effect: 0%
Veronica persicae; [11]
  herbicidal effect: 0%
Digitaria sanguinalis; 7 d, pelargonic acid 5440 g/ha
  herbicidal effect: 51%
Digitaria sanguinalis; 7 d, pelargonic acid 6800 g/ha
  herbicidal effect: 51%
Digitaria sanguinalis; 7 d, pelargonic acid 8160 g/ha
  herbicidal effect: 51%
Digitaria sanguinalis; [1]
  herbicidal effect: 51%
Digitaria sanguinalis; [2]
  herbicidal effect: 80%
Digitaria sanguinalis; [3]
  herbicidal effect: 80%
Digitaria sanguinalis; [4]
  herbicidal effect: 80%
Digitaria sanguinalis; [5]
  herbicidal effect: 80%
Digitaria sanguinalis; [6]
  herbicidal effect: 73%
Digitaria sanguinalis; [7]
  herbicidal effect: 73%
Digitaria sanguinalis; [8]
  herbicidal effect: 73%
Digitaria sanguinalis; [9]
  herbicidal effect: 73%
Digitaria sanguinalis; [10]
  herbicidal effect: 64%
Digitaria sanguinalis; [12]
  herbicidal effect: 64%
Digitaria sanguinalis; [13]
  herbicidal effect: 64%
Digitaria sanguinalis; [11]
  herbicidal effect: 64%
Epilobium tetragonum; 7 d, pelargonic acid 5440 g/ha
  herbicidal effect: 61%
Epilobium tetragonum; 7 d, pelargonic acid 8160 g/ha
  herbicidal effect: 61%
Epilobium tetragonum; [1]
  herbicidal effect: 61%
Epilobium tetragonum; [3]
  herbicidal effect: 96%
Epilobium tetragonum; [4]
  herbicidal effect: 96%
Epilobium tetragonum; [5]
  herbicidal effect: 96%
Epilobium tetragonum; [7]
  herbicidal effect: 96%
Epilobium tetragonum; [8]
  herbicidal effect: 96%
Epilobium tetragonum; [9]
  herbicidal effect: 96%
Epilobium tetragonum; [12]
  herbicidal effect: 96%
Epilobium tetragonum; [13]
  herbicidal effect: 96%
Epilobium tetragonum; [11]
  herbicidal effect: 96%
Geranium molle; pelargonic acid 5440 g/ha
  herbicidal effect: 63%
Geranium molle; pelargonic acid 6800 g/ha
  herbicidal effect: 63%
Geranium molle; pelargonic acid 8160 g/ha
  herbicidal effect: 63%
Geranium molle; pelargonic acid 10880 g/ha
  herbicidal effect: 63%
